The values below come from patent US11040035B2, “3-oxo-2,6-diphenyl-2,3-dihydropyridazine-4-carboxamides” (BAYER PHARMA AKTIENGESELLSCHAFT, priority 2016, dated 2021).

For series [1], the target named is T1, AHR (Homo sapiens, UniProt P35869).
T1 sequence (P35869 11-848): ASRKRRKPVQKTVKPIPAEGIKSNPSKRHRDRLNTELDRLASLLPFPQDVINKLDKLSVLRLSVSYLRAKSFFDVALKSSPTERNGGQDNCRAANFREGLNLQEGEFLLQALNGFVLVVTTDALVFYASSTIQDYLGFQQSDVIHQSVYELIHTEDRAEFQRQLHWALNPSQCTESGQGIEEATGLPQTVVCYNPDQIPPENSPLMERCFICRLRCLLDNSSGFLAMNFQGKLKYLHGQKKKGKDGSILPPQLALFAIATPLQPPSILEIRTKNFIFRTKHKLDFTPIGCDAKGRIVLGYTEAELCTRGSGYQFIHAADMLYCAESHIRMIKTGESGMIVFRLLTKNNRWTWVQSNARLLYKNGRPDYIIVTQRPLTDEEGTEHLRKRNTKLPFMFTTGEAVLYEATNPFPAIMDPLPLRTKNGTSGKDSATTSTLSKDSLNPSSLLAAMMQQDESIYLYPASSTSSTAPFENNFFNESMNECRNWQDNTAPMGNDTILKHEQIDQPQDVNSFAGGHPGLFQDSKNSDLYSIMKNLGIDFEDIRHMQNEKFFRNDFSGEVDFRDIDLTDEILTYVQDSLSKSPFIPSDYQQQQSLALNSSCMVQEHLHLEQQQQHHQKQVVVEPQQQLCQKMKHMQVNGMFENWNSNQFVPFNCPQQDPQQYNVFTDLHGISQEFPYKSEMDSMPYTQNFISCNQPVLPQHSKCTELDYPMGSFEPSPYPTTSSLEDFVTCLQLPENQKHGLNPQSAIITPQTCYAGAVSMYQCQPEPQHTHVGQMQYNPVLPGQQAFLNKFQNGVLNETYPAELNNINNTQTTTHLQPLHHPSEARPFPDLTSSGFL
Kind of series: In vitro assay 2: agonism in human cell line (transactivation assay).

Series [2] concerns AHR-regulated gene CYP1A1. Kind of series: In vitro assay 3: AHR-regulated CYP1A1 expression in human cell line (U937, qPCR).
The target in series [3] is T1, AHR. Nature of the series: In vitro assay 1: antagonism in human cell line (transactivation assay, kynurenic acid prestimulated). As to conditions: Assay 1: AHR-luc Hum Antagonism IC50 [M], 150 μM kynurenic acid, 20 hours, firefly luciferase.
Experimental: Transactivation assays were carried out in U87 glioblastoma cells (ATCC) endogenously expressing AHR. In addition the cells were stably transfected with an AHR inducible firefly luciferase reporter gene construct that carried AHR-binding sites (DRE) in its promoter and a renilla reporter gene construct with constitutively active promoter. Kynurenic acid is an endogenous AHR activating ligand and was used to prestimulate test cells prior to testing the antagonistic properties of compounds.
In Vitro Assay 1: Antagonism in Human Cell Line
Cells in medium (tryptophan free RPMI, 1% FCS, 2 mM Glutamine) supplemented with 150 μM kynurenic acid were grown for 20 hours in absence (negative control) or presence of increasing concentrations of test compounds (typical dilutions: 72 pmol/L, 0.25 nmol/L, 0.89 nmol/L; 3.1 nmol/L, 11 nmol/L, 38 nmol/L, 130 nmol/L, 470 nmol/L, 1.6 μmol/L, 5.7 μmol/L and 20 μmol/L in duplicates). As positive inhibition control cells supplemented with 150 μM kynurenic acid were incubated in presence of 5 μM Staurosporin. Normalization was done by positive and negative controls.
Firefly luciferase and Renilla activity was determined by the DualGlo Luciferase Assay System (Promega, #2920).
Setting [4] is: read-out: Assay 2: AHR-luc Hum Agonism IC50, no kynurenic acid, 20 hours, firefly luciferase.
Where [5] appears, read: Assay 2: AHR-luc Hum Agonism IC50 [M], no kynurenic acid, 20 hours, firefly luciferase.
Setting [6] is: Homo sapiens, U-937, 6 h, read-out: Assay 3: Hum CYP1A1 Antagonism IC50 [M], U937 cells, 200 μM KA, 6 hours, qPCR.

SMILES strings stand for the structures. Where two headings read alike, the source gives them in different places.

Take `O=C(NC(CO)C1CCOC1)c1cc(-c2ccc(OC(F)(F)F)cc2)nn(-c2cccc(F)c2)c1=O` (single isomer, unassigned) [Example 178, 2-(3-Fluorophenyl)-N-[2-hydroxy-1-(tetrahydrofuran-3-yl)ethyl]-3-oxo-6-[4-(trifluoromethoxy)phenyl]-2,3-dihydropyridazine-4-carboxamide]: the IC50 on AHR [1] (setting [4]) was more than 2e-05 M; in series [2] (read-out: Assay 3: Hum CYP1A1 Antagonism IC50, U937 cells, 200 μM KA, 6 hours, qPCR), 1.13e-07 M; against AHR [3], 1.27e-07 M.
With `O=C(N[C@@H]1CCCC[C@@H]1O)c1cc(-c2ccc(Cl)cc2)nn(-c2cccc(F)c2)c1=O` (single isomer, unassigned) [Example 104, 6-(4-Chlorophenyl)-2-(3-fluorophenyl)-N-(cis-2-hydroxycyclohexyl)-3-oxo-2,3-dihydropyridazine-4-carboxamide], the IC50 was more than 2e-05 M against AHR [1] (setting [5]), 1.64e-08 M in series [2] (setting [6]) and 1.57e-08 M against AHR [3].
On to `Cc1ccc(-c2cc(C(=O)N[C@H](CO)C(C)C)c(=O)n(-c3cccc(F)c3)n2)cc1C` [Example 83, 6-(3,4-dimethylphenyl)-2-(3-fluorophenyl)-N-[(2S)-1-hydroxy-3-methylbutan-2-yl]-3oxo-2,3-dihydropyridazine-4-carboxamide], for which the figures for the half-maximal inhibitory concentration (IC50) (in series [2] (setting [6]); against AHR [3]) were 2.39e-08 M and 3.6e-08 M, respectively.
As for `CC[C@@H](CO)NC(=O)c1cc(-c2ccc(Cl)cc2)nn(-c2cccc(F)c2)c1=O` [Example 21, 6-(4-Chlorophenyl)-2-(3-fluorophenyl)-N-[(2S)-1-hydroxybutan-2-yl]-3-oxo-2,3-dihydropyridazine-4-carboxamide], the results for the 50% inhibitory concentration (IC50) (in series [2] (setting [6]); on AHR [3]) were 3.54e-08 M and 1.89e-08 M, respectively.
For `O=C(N[C@@H]1CCC[C@@H]1O)c1cc(-c2ccc(Cl)cc2)nn(-c2cccc(F)c2)c1=O` (relative stereo) [Example 109, 6-(4-Chlorophenyl)-2-(3-fluorophenyl)-N-(cis-2-hydroxycyclopentyl)-3-oxo-2,3-dihydropyridazine-4-carboxamide], the IC50 at AHR [1] (setting [5]) is more than 2e-05 M; in series [2] (setting [6]), 3.61e-08 M.
For the molecule `Cc1ccc(-c2cc(C(=O)NC(C)CO)c(=O)n(-c3cccc(F)c3)n2)cc1` (stereo not shown) [Example 7, 2-(3-Fluorophenyl)-N-(1-hydroxypropan-2-yl)-6-(4-methylphenyl)-3-oxo-2,3-dihydropyridazine-4-carboxamide], the IC50 in series [2] (setting [6]) came to 1.23e-07 M; at AHR [3] it was 6.4e-08 M.
As to `Cc1ccc(-c2cc(C(=O)N[C@@H](CO)C(C)C)c(=O)n(-c3cccc(F)c3)n2)cc1` [Example 3, 2-(3-Fluorophenyl)-N-[(2R)-1-hydroxy-3-methylbutan-2-yl]-6-(4-methylphenyl)-3-oxo-2,3-dihydropyridazine-4-carboxamide], the IC50 in series [2] (setting [6]) was found to be 1.31e-07 M; against AHR [3] it was 3.03e-07 M.
For the molecule `Cc1ccc(-c2cc(C(=O)NC(CO)C(C)C)c(=O)n(-c3cccc(F)c3)n2)cc1` (stereo not shown) [Example 1, 2-(3-Fluorophenyl)-N-(1-hydroxy-3-methylbutan-2-yl)-6-(4-methylphenyl)-3-oxo-2,3-dihydropyridazine-4-carboxamide], the IC50 in series [2] (setting [6]) was found to be 3.1e-08 M; on AHR [3] it was 2.98e-08 M.
For `Cc1ccc(-c2cc(C(=O)N[C@@H](C)CO)c(=O)n(-c3cccc(F)c3)n2)cc1C` [Example 89, 6-(3,4-dimethylphenyl)-2-(3-fluorophenyl)-N-[(2S)-1-hydroxypropan-2-yl]-3-oxo-2,3-dihydropyridazine-4-carboxamide], the figures for the IC50 (in series [2] (setting [6]); against AHR [3]) were 1.88e-07 M and 1.15e-07 M, respectively.
Consider `CC[C@@H](CO)NC(=O)c1cc(-c2ccc(C)c(C)c2)nn(-c2cccc(F)c2)c1=O` [Example 86, 6-(3,4-dimethylphenyl)-2-(3-fluorophenyl)-N-[(2S)-1-hydroxybutan-2-yl]-3-oxo-2,3-dihydropyridazine-4-carboxamide], for which the IC50 stood at 4.83e-08 M in series [2] (setting [6]) and 4.55e-08 M against AHR [3].
With `COC(=O)[C@H](CO)NC(=O)c1cc(-c2ccc(Cl)cc2)nn(-c2cccc(F)c2)c1=O` [Example 153, Methyl N-{[6-(4-chlorophenyl)-2-(3-fluorophenyl)-3-oxo-2,3-dihydropyridazin-4-yl]carbonyl}-L-serinate], the IC50 on AHR [1] (setting [5]) is more than 2e-05 M; against AHR [3] it was 1.43e-07 M.
With `Cc1ccc(-c2cc(C(=O)NC(CO)C(C)C)c(=O)n(-c3ccccc3)n2)cc1` (stereo not shown) [Example 70, N-(1-hydroxy-3-methylbutan-2-yl)-6-(4-methylphenyl)-3-oxo-2-phenyl-2,3-dihydropyridazine-4-carboxamide], the results for the IC50 (in series [2] (setting [6]); against AHR [3]) were 1.26e-07 M and 9.22e-08 M, respectively.
Take `C[C@@H](CO)NC(=O)c1cc(-c2ccc(Cl)c(F)c2)nn(-c2cc(F)cc(F)c2)c1=O` [Example 402, 6-(4-chloro-3-fluorophenyl)-2-(3,5-difluorophenyl)-N-[(2S)-1-hydroxypropan-2-yl]-3-oxo-2,3-dihydropyridazine-4-carboxamide]: the half-maximal inhibitory concentration (IC50) against AHR [1] (setting [5]) is more than 2e-05 M; at AHR [3], 3.7e-07 M.
Consider `COc1ccc(-c2cc(C(=O)NC(C)C(C)O)c(=O)n(-c3cccc(F)c3)n2)cc1` (stereo not shown) [Example 138, 2-(3-Fluorophenyl)-N-(3-hydroxybutan-2-yl)-6-(4-methoxyphenyl)-3-oxo-2,3-dihydropyridazine-4-carboxamide], for which the IC50 against AHR [1] (setting [5]) is more than 2e-05 M; against AHR [3], 5.02e-08 M.
Take `COCCC(CO)NC(=O)c1cc(-c2ccc(Cl)cc2)nn(-c2cccc(F)c2)c1=O` (racemic) [Example 227, 6-(4-Chlorophenyl)-2-(3-fluorophenyl)-N-[(2RS)-1-hydroxy-4-methoxybutan-2-yl]-3-oxo-2,3-dihydropyridazine-4-carboxamide]: the results for the IC50 against AHR [1] (setting [5]) and against AHR [3] were more than 2e-05 M and 3.57e-07 M, respectively.
Turning to `CC(O)C(C)NC(=O)c1cc(-c2ccc(OC(F)F)cc2)nn(-c2cccc(F)c2)c1=O` (single isomer, unassigned) [Example 142, 6-[4-(Difluoromethoxy)phenyl]-2-(3-fluorophenyl)-N-(3-hydroxybutan-2-yl)-3-oxo-2,3-dihydropyridazine-4-carboxamide], the IC50 at AHR [1] (setting [4]) is more than 2e-05 M; at AHR [3] it was 9.15e-07 M.
In the case of `Cc1cccc(-n2nc(-c3ccc(Cl)cc3)cc(C(=O)NCC(O)C(F)(F)F)c2=O)c1` (single isomer, unassigned) [Example 367, 6-(4-chlorophenyl)-2-(3-methylphenyl)-3-oxo-N-(3,3,3-trifluoro-2-hydroxypropyl)-2,3-dihydropyridazine 4-carboxamide], the half-maximal inhibitory concentration (IC50) on AHR [1] (setting [5]) was more than 2e-05 M; against AHR [3], 5e-07 M.
Consider `O=C(N[C@H]1COC[C@H]1O)c1cc(-c2ccc(Cl)cc2)nn(-c2cccc(F)c2)c1=O` (single isomer, unassigned) [Example 385, 6-(4-chlorophenyl)-2-(3-fluorophenyl)-N-[cis-4-hydroxytetrahydrofuran-3-yl]-3-oxo-2,3-dihydropyridazine-4-carboxamide], for which the 50% inhibitory concentration (IC50) at AHR [1] (setting [4]) was more than 2e-05 M; against AHR [3], 8.8e-08 M.
`O=C(NCC(O)C(F)(F)F)c1cc(-c2ccc(Cl)c(F)c2)nn(-c2cc(F)cc(F)c2)c1=O` (stereo not shown) [Example 403, 6-(4-chloro-3-fluorophenyl)-2-(3,5-difluorophenyl)-3-oxo-N-(3,3,3-trifluoro-2-hydroxypropyl)-2,3-dihydropyridazine-4-carboxamide]: the IC50 at AHR [1] (setting [5]) was more than 2e-05 M; on AHR [3], 3.1e-07 M.
Consider `NC(=O)CC(CO)NC(=O)c1cc(-c2ccc(Cl)cc2)nn(-c2cccc(F)c2)c1=O` (stereo not shown) [Example 163, N-(4-Amino-1-hydroxy-4-oxobutan-2-yl)-6-(4-chlorophenyl)-2-(3-fluorophenyl)-3-oxo-2,3-dihydropyridazine-4-carboxamide], for which the 50% inhibitory concentration (IC50) on AHR [1] (setting [5]) is more than 2e-05 M; against AHR [3] it was 4.98e-07 M.
As to `O=C(NCC(O)C(F)(F)F)c1cc(-c2ccc(Cl)cc2)nn(-c2cccc(C(F)F)c2)c1=O` (stereo not shown) [Example 389, 6-(4-chlorophenyl)-2-[3-(difluoromethyl)phenyl]-3-oxo-N-(3,3,3-trifluoro-2-hydroxypropyl)-2,3-dihydropyridazine-4-carboxamide], the IC50 on AHR [1] (setting [5]) is more than 2e-05 M; against AHR [3], 8.8e-07 M.
For `C[C@@H](CO)NC(=O)c1cc(-c2ccc(Cl)c(F)c2)nn(-c2cccc(F)c2)c1=O` [Example 286, 6-(4-Chloro-3-fluorophenyl)-2-(3-fluorophenyl)-N-[(2S)-1-hydroxypropan-2-yl]-3-oxo-2,3-dihydropyridazine-4-carboxamide], the values for the concentration for half-maximal inhibition (IC50) on AHR [1] (setting [5]) and against AHR [3] were more than 2e-05 M and 2.77e-07 M, respectively.

What is called IC50 is the midpoint of a concentration-inhibition curve.
